Test results from patent US20260000496A1, “MATERIALS AND METHODS FOR DRUG-INDUCED GINGIVAL OVERGROWTH” (Optimed Technology, Inc., priority 2019, published 2026).

Tests used:
Myd88 = assay: Mice study #2: Myd88 immunostaining of gingival tissue; format: in vivo, C57BL/6 mice; details: preventive and active treatment groups consistent
Experimental: (§1) Mice study #2: Validation study for preventive and active treatment for DIGO. […] One set of these mice were used as a control disease group (FIG. 23A) while the other group was treated with folic acid (gel and in drinking water) (FIG. 23B). In the prevention and treatment group, folic acid (10 μg/ml) (Sigma-Aldrich, St. Louis MO) was included in the drinking water from the time of suture placement until end of the study (14 days). Additionally, gel applications were repeated daily until the end of the study (14 days). The four groups in this study were: • 1. Control group (n=2): no interventions were performed • 2.
(§2) Histopathology and Immunohistochemistry. Mice mandibles were fixed in 10% formaldehyde for overnight at 4° C. on the shaker with 45 rpm and then the solutions were replaced with 70% ethanol. The tissues were decalcified with 10% ethylenediaminetetraacetic acid (EDTA) for 1 week and were dehydrated through graded ethanol, cleared with xylene, and embedded in paraffin. 4 μm serial sections were cut in a buccal-lingual direction and stained with Hematoxylin and Eosin (HE) and observed under light microscopy for histomorphological evaluations.
(§3) For immunohistochemistry, unstained sections were deparaffinized in xylene for 10 minutes and then transferred to ethanol for 20 minutes. […]

LITAF [1] = assay: Mice study #2: LITAF immunostaining of gingival tissue; format: in vivo, C57BL/6 mice
Experimental: as §1, §2, §3

LITAF [2] = assay: Western blot of LITAF in oral keratinocytes; format: cell-based, human
Experimental: Cell Culture. Normal human oral keratinocytes (NOKSI) and fibroblast (HOF) cells were maintained in Dulbecco […] Eagle's medium (Sigma-Aldrich, St. Louis, MO, USA) supplemented with 10% fetal bovine serum (Atlas Bio-logicals, Fort Collins, CO, USA) and 100 units/mL penicillin and 100 μg/mL streptomycin (LifeTechnologies, Carlsbad, CA, USA). Cells were grown in incubator at 37° C. in a humidified chamber with 5% CO2.
Drugs treatment in cell culture. The cells were treated alone or with different combination of lipopolysaccharide, cyclosporine, phenytoin, and folic acid. All of them were purchased from Sigma-Aldrich (St. Louis, MO, USA). Each of them were used from 0 μg/ml to 40 μg/ml and the optimum concentration were found 10 μg/ml.
Western blot analysis. Cells were seeded in 60 mm plates with a density of 5×10^5 cells per plate and washed briefly with Dulbecco's phosphate-buffered saline (Gibco, Waltham, MA, USA). Whole cell lysates were prepared using RIPA lysis buffer containing protease inhibitor cocktail (Sigma-Aldrich). Total protein concentration was determined using the BCA reagent (Pierce, Waltham, MA, USA). 20 μg of total protein were resolved on sodium dodecyl sulfate-polyacrylamide gel electrophoresis and transferred to polyvinylidenedifluoride membrane and immunoblotted. The blots were incubated for 1 h in 1% bovine serum albumin (BSA) (Sigma-Aldrich) to block the non-specific bindings followed by over-night incubation in primary antibodies (MyD88 and pP65 from Cell Signaling Technology, and human LITAF ThermoFisher Sigma) at 4° C. on shaker. Next day, blots were washed for three times (10 min each) in Tris-buffered saline containing 1% Tween20 (TBST) followed by incubation with secondary antibody (Goat anti-rabbit IgG HRP) with 1:10,000 dilution for 1 h. Following washes, bands were visualized using gel documentation Imaging Systems (BioRad). The band intensities were quantified using software ImageJ (NIH, USA) and relative protein levels were normalized by β-actin (Cell Signaling). To perform the western blot of animal tissue samples, the gingival tissues were collected from both BABLB/c and C57BL/6 mice studies. The soft tissues were separated from the mandibular bone and then crunched. The Bradford assay was performed to measure the protein concentration of each sample. After normalization, 20 μg of whole tissue protein lysate were proceeded for western blot analysis.

## Nc1nc2ncc(CNc3ccc(C(=O)N[C@@H](CCC(=O)O)C(=O)O)cc3)nc2c(=O)[nH]1 [folic acid]
Myd88
  epithelial Myd88 expression, disease group relative to folic acid-treated group: significantly higher compared to both treated and control groups
LITAF [1]
  epithelial LITAF expression, disease group relative to folic acid-treated group: higher in the disease group and uniformly distributed compared to the control and treated groups
LITAF [2]; LPS, CSA, FA each 10 μg/ml, 24 hours
  LITAF protein level: inhibits CSA-induced expression
LITAF [2]; LPS, Phe, FA each 10 μg/ml, 24 hours
  amount of LITAF protein: LITAF expression is reduced
LITAF [2]; different concentrations of folic acid (2.5-40 μg/ml), 24 hours
  amount of LITAF protein: dose dependent effect
LITAF [2]; normal oral keratinocyte cells, FIG. 35
  LITAF by western blot: downregulation
